In PMC12483202, “Pharmacokinetic profile of oral firocoxib in the koala (Phascolarctos cinereus)” (PLOS One, 2025):
Converted amounts (≈) assume the structure as drawn. Like-named read-outs stand apart in the source and are kept apart here.

Key:
[1] = tested on: koalas; experiment: Clinical observations, haematology and biochemistry after repeat dosing; format: in vivo, koala (Phascolarctos cinereus); conditions: for Phos: reference interval 0.87-2.47
Method: Samples were centrifuged at 1500 x g for 10 minutes, within 1 h of collection; the plasma was immediately stored at –80 °C and protected from light until drug quantification. […] Clinical observations for the presence of adverse effects in the animals treated included measurement of vital signs, appetite, body weight, faecal consistency and overall behaviour and mobility.

[2] = set-up: method as in ref [8] of S9 Table; conditions: Goats (10), ref [8] of S9 Table, cited from earlier work
[3] = tested on: COX-1:COX-2; conditions: cited from earlier work
[4] = tested on: equine ischaemic intestinal injury; set-up: method as in PMID 19645580; conditions: cited from earlier work
[5] = tested on: COX-2; conditions: cited from earlier work
[6] = Repeated oral dosing (5 mg/kg every 12 h, six doses) plasma trough concentrations in koalas; format: in vivo; conditions: koala (Phascolarctos cinereus)
Method: At least 2 months after the initial single oral dose administration study, firocoxib was administered twice daily at a dose of 5 mg/kg orally (as described in the single dose administration) for three consecutive days with the last dose administered 60 h after first administration, with a total of six doses administered. Blood (2 mL) was collected once daily into lithium heparin tubes at […] after first firocoxib dosage (prior to the morning dose). The cap, extension tube and catheter were flushed with saline before and after each collection. The first 0.5 mL of blood was discarded to avoid dilution of samples with saline.
With the repeated oral dosing, the accumulation factor equation [18] was used to ascertain if there was any firocoxib accumulation between trough concentrations at 48 h versus 72 h:
Accumulationfactor=(1−e^−nkT)/(1−e^−kT)
Where n = the number of doses k = ke = elimination constant
τ = number of hours between dosing

[7] = tested on: equine plasma proteins; set-up: method as in PMID 17472652; conditions: radiolabelled firocoxib; cited from earlier work
[8] = tested on: ovariohysterectomised cats; set-up: method as in PMID 27515266; conditions: 3 mg/kg/day, cited from earlier work
[9] = Firocoxib binding to plasma proteins, ultrafiltration; format: in vitro ADME; conditions: pooled plasma, pH 7.4, firocoxib 500 ng/mL, corrected for non-specific binding, thawed frozen plasma, read-out: corrected percentage bound to plasma proteins (converted)
Method: The percentage of firocoxib bound to koala plasma proteins was determined using the ultrafiltration method using a modified protocol. As firocoxib plasma protein binding (PPB) has been reported in horses, archived horse plasma (obtained under The University of Sydney approved animal ethics protocol: 2015/736) was tested simultaneously alongside koala plasma to compare the percentage of firocoxib bound to equine plasma proteins. The total plasma protein concentration in the koala samples was determined using Vetscan® VS2 chemistry analyser (Comprehensive Diagnostic Profile), (Zoetis Australia Pty Ltd., Rhodes, NSW). Firocoxib dissolved in dimethyl sulfoxide (to reduce non-specific binding) at a concentration of 500 ng/mL, was added to 1 mL of thawed pooled blank koala or horse plasma, the pH was adjusted to 7.4, and then incubated in a water bath at 37 °C for 30 min. […] Both fractions were analysed by HPLC as described above. All samples were analysed as duplicates. The percentage of substrate binding to plasma proteins was calculated using the equation: […]
The same concentrations of firocoxib were added to phosphate buffered saline and underwent ultrafiltration to determine non-specific binding to the filtration membrane. Thereafter the corrected percentage of substrate binding to plasma proteins was calculated as: […]

[10] = set-up: method as in ref [4] of S9 Table; conditions: Rabbits (6); PO 3.74 -4.20 mg/kg; ref [4] of S9 Table; cited from earlier work
[11] = set-up: method as in ref [9] of S9 Table; conditions: Rhinoceros (5); PO 0.1 mg/kg; ref [9] of S9 Table; cited from earlier work
[12] = set-up: method as in ref [7] of S9 Table; conditions: Calves (10); PO 0.5 mg/kg; ref [7] of S9 Table; cited from earlier work
[13] = tested on: cats; set-up: method as in PMID 16111170; conditions: cited from earlier work
[14] = female, in vivo, Plasma firocoxib concentration (trough)
[15] = male, in vivo, Plasma firocoxib concentration (trough)

Phos ([1]; koala K2, 72 h, after repeated dosing 5 mg/kg every 12 h): 1.48 mmol/L | Phos ([1]; koala K6, 72 h, after repeated dosing 5 mg/kg every 12 h): 1.37 mmol/L | Na ([1]; koala K6, 72 h, after repeated dosing 5 mg/kg every 12 h, reference interval 132-143): 139 mmol/L | concentration at 24 h ([6]; both sexes, plasma, arithmetic mean, six koalas, 24 h, 5 mg/kg oral every 12 h, read-out: Firocoxib plasma trough concentration): 54.7 ng/mL | concentration at 48 h ([6]; both sexes, plasma, arithmetic mean, six koalas, 48 h, 5 mg/kg oral every 12 h, read-out: Firocoxib plasma trough concentration): 47.4 ng/mL | concentration at 72 h ([6]; both sexes, plasma, arithmetic mean, six koalas, 72 h (12 h after the last dose), 5 mg/kg oral every 12 h, read-out: Firocoxib plasma trough concentration): 85.5 ng/mL | concentration at 24 h ([6]; both sexes, plasma, harmonic mean, six koalas, 24 h, 5 mg/kg oral every 12 h, read-out: Firocoxib plasma trough concentration): 43.3 ng/mL | concentration at 48 h ([6]; both sexes, plasma, harmonic mean, six koalas, 48 h, 5 mg/kg oral every 12 h, read-out: Firocoxib plasma trough concentration): 33.2 ng/mL | concentration at 72 h ([6]; both sexes, plasma, harmonic mean, six koalas, 72 h (12 h after the last dose), 5 mg/kg oral every 12 h, read-out: Firocoxib plasma trough concentration): 68.8 ng/mL | concentration at 24 h ([6]; both sexes, plasma, median, six koalas, 24 h, 5 mg/kg oral every 12 h, read-out: Firocoxib plasma trough concentration): 58.3 ng/mL | concentration at 48 h ([6]; both sexes, plasma, median, six koalas, 48 h, 5 mg/kg oral every 12 h, read-out: Firocoxib plasma trough concentration): 52.9 ng/mL | concentration at 72 h ([6]; both sexes, plasma, median, six koalas, 72 h (12 h after the last dose), 5 mg/kg oral every 12 h, read-out: Firocoxib plasma trough concentration): 82.1 ng/mL | concentration at 24 h [6, 14]: 69.1 ng/mL | concentration at 48 h [6, 14]: 36.8 ng/mL | concentration at 72 h [6, 14]: 137 ng/mL | concentration at 24 h ([6]; female, plasma, harmonic mean, females, 24 h, 5 mg/kg oral every 12 h, read-out: Firocoxib trough plasma concentration): 75.5 ng/mL | concentration at 48 h ([6]; female, plasma, harmonic mean, females, 48 h, 5 mg/kg oral every 12 h, read-out: Firocoxib trough plasma concentration): 51.6 ng/mL | concentration at 72 h ([6]; female, plasma, harmonic mean, females, 72 h, 5 mg/kg oral every 12 h, read-out: Firocoxib trough plasma concentration): 118 ng/mL | concentration at 24 h ([6]; female, plasma, mean, females, 24 h, 5 mg/kg oral every 12 h, read-out: Firocoxib trough plasma concentration): 76.5 ng/mL | concentration at 48 h ([6]; female, plasma, mean, females, 48 h, 5 mg/kg oral every 12 h, read-out: Firocoxib trough plasma concentration): 55.5 ng/mL | concentration at 72 h ([6]; female, plasma, mean, females, 72 h, 5 mg/kg oral every 12 h, read-out: Firocoxib trough plasma concentration): 120 ng/mL | concentration at 24 h ([6]; female, plasma, median (range), females, 24 h, 5 mg/kg oral every 12 h, read-out: Firocoxib trough plasma concentration): 71.3 ng/mL | concentration at 48 h ([6]; female, plasma, median (range), females, 48 h, 5 mg/kg oral every 12 h, read-out: Firocoxib trough plasma concentration): 60.2 ng/mL | concentration at 72 h ([6]; female, plasma, median (range), females, 72 h, 5 mg/kg oral every 12 h, read-out: Firocoxib trough plasma concentration): 120 ng/mL | concentration at 24 h [6, 15]: 25.3 ng/mL | concentration at 72 h [6, 15]: 61.8 ng/mL | concentration at 24 h ([6]; male, plasma, arithmetic mean, males, 24 h, 5 mg/kg oral every 12 h, read-out: Firocoxib trough plasma concentration): 33 ng/mL | concentration at 48 h ([6]; male, plasma, arithmetic mean, males, 48 h, 5 mg/kg oral every 12 h, read-out: Firocoxib trough plasma concentration): 39.2 ng/mL | concentration at 72 h ([6]; male, plasma, arithmetic mean, males, 72 h, 5 mg/kg oral every 12 h, read-out: Firocoxib trough plasma concentration): 51.3 ng/mL | concentration at 24 h ([6]; male, plasma, harmonic mean, males, 24 h, 5 mg/kg oral every 12 h, read-out: Firocoxib trough plasma concentration): 30.3 ng/mL | concentration at 48 h ([6]; male, plasma, harmonic mean, males, 48 h, 5 mg/kg oral every 12 h, read-out: Firocoxib trough plasma concentration): 24.6 ng/mL | concentration at 72 h ([6]; male, plasma, harmonic mean, males, 72 h, 5 mg/kg oral every 12 h, read-out: Firocoxib trough plasma concentration): 48.5 ng/mL | concentration at 24 h ([6]; male, plasma, median (range), males, 24 h, 5 mg/kg oral every 12 h, read-out: Firocoxib trough plasma concentration): 26.1 ng/mL | concentration at 48 h ([6]; male, plasma, median (range), males, 48 h, 5 mg/kg oral every 12 h, read-out: Firocoxib trough plasma concentration): 48.2 ng/mL | concentration at 72 h ([6]; male, plasma, median (range), males, 72 h, 5 mg/kg oral every 12 h, read-out: Firocoxib trough plasma concentration): 56.2 ng/mL | fraction unbound at 30 min, 500 ng/mL ([9]; horse plasma): 0.147 | fraction unbound at 30 min, 500 ng/mL ([9]; koala plasma): 0.153
Structure (SMILES): CC1(C)OC(=O)C(OCC2CC2)=C1c1ccc(S(C)(=O)=O)cc1 [firocoxib]
appetite, behaviour and mobility ([1]; in vivo): no change from normal appetite, behaviour and mobility | body weight ([1]; in vivo): maintained stable body weight | t1/2 ([2]; IV 0.5 mg/kg): 26.41 h | Cmax ([2]; PO 0.5 mg/kg): 139 ng/mL | Tmax ([2]; PO 0.5 mg/kg): 0.77 h | t1/2 ([2]; PO 0.5 mg/kg): 21.51 h | COX-1:COX-2 inhibition ratio ([3]; dogs, whole blood): 384–427 | COX-2 selectivity relative to carprofen ([3]; more potent than carprofen in COX-2 selectivity): 30 fold | visceral analgesia ([4]; equine ischaemic intestinal injury): efficacious visceral analgesia | mucosal barrier function recovery ([4]; firocoxib compared with flunixin meglumine): superior mucosal barrier function recovery | IC80 (COX-2) ([5]; horse whole blood, in vitro): 0.067 µg/mL (≈ 0.199 µM) | plasma concentration required to inhibit 80% of in vitro COX-2 reactions ([5]; horse, corrected from whole blood IC80): exceeding 103 ng/mL | COX-1:COX-2 inhibition ratio ([5]; horses, whole blood): 643 | bound in horse plasma [7]: 97% | postoperative analgesia ([8]; 1 h prior to induction of anaesthesia and at 24 and 48 h post-surgery): some analgesia | azotaemia ([8]; 72 h after surgery): two out of eight cats developed a reversible azotaemia | Cmax [10]: 160 ng/mL | Tmax [10]: 3.81 h | t1/2 [10]: 9.12 h | Cmax [11]: 15.7 ng/mL | t1/2 [11]: 4.96 h | Cmax [12]: 127.9 ng/mL | t1/2 [12]: 18.8 h | antipyretic activity [13]: antipyretic activity
